Measured values reported in paper PMC8623418, “Novel Multitarget Hydroxamic Acids with a Natural Origin CAP Group against Alzheimer’s Disease: Synthesis, Docking and Biological Evaluation” (Pharmaceutics, 2021).

Experiments:
5xFAD transgenic mice [1] = assay: Ex vivo Congo red staining of Aβ plaques in brain sections; conditions: compared to untreated 5XFAD mice
Description: For histological examination, the mouse brain was fixed in 10% neutral buffered formalin (Leica Biosystems Inc., Buffalo Grove, IL, USA) at +4 °C for 24 h. Then, the material was dehydrated, defatted, and clarified in a Leica ASP200 apparatus (Leica Biosystems Inc., Buffalo Grove, IL, USA) using ethanol-xylene wiring according to the following scheme: deionized water—2 h; 70% ethanol—12 h; ethanol 96% sequentially—1 h, 30 min, 2 portions 15 min each; a mixture of ethanol and xylene 1:1—20 min; xylene—2 portions for 30 min each; paraffin—3 times for 1 h each. Then, the material was embedded in paraffin blocks using a Leica EG1160 apparatus (Leica Biosystems Inc., Buffalo Grove, IL, USA). […] The results were evaluated using a ZEISS LSM 880 laser scanning microscope with an Airyscan module (Carl Zeiss Vision, Jena, Germany). […] A 10 × 10 grid was imposed on images containing only brain tissue; then, in 10 grid cells located obliquely from top left to right bottom corner, we selected plaques using the ‘magic wand’ tool, so the average plaque area and luminosity were calculated. Three images were analyzed for each animal in each group; then, the average of three animals was calculated. […]

5xFAD transgenic mice [2] = assay: Ex vivo electron transport chain activity of brain mitochondria (Seahorse OCR); assay type: in vivo; conditions: brain mitochondrial p2 fraction of treated 5xFAD mice
Description: (§1) At the end of the in vivo series of experiments, the animals’ brains were sampled for further measurement of the lipid peroxidation level, as well as glutathione content in mouse brain homogenates. A synaptosomal p2 fraction containing mitochondria was also isolated to investigate the bioenergetic characteristics of organelles.
The study on the effect of the electron transport chain complexes was carried out on a preparation of the mitochondrial p2 fraction of the brain (10 µg/well) using the Agilent Seahorse XF96e Analyzer (Seahorse Bioscience, Santa Clara, CA, USA) to measure the rate of oxygen uptake under the action of modulators. For this purpose, the activators of the electron transport chain complex I-glutamate/malate, the inhibitor of complex I, rotenone (2 µM), the substrate of complex II, potassium succinate ([…]), the inhibitor of complex III, antimycin A, and the substrates of complex IV, ascorbate, were used/TMPD (0.5 µM).
To evaluate mitochondrial functioning, we determined the functioning of the respiratory chain complexes using Seahorse Bioanalyzer. […] However, the oxygen consumption rate (OCR) was increased in transgenic animals treated with the test compounds.

5xFAD transgenic mice [3] = assay: Ex vivo total glutathione in mouse brain homogenate; conditions: post-mortem, versus 5xFAD mice
Description: as §1
The performance of the glutathione system of the cell’s own antioxidant defense was evaluated using a commercially available kit (Glutathione Assay Kit, Sigma Aldrich, Saint Louis, MO, USA) in accordance with the protocol provided by the manufacturer. The total glutathione level was determined by spectrophotometric measurement at a wavelength of 412 nm by the amount of 2-nitro-5-thiobenzoic acid, a product formed during the reduction of GSH 5,5′-dithiobis-(2-nitrobenzoic acid).
The glutathione content was estimated using the method based on measurement of the absorption of a colored compound formed during the colorimetric reaction of DTNB with SH groups of glutathione. […] Therefore, the level of lipid peroxidation of mouse brain homogenates was also measured by its final product, malondialdehyde. […]

Structure (SMILES): O=C(/C=C/c1ccc(C(=O)NO)cc1)NC1C2CC3CC(C2)CC1C3 (stereo not drawn) [compound 25, 4-((E)-3-((-Adamantan-2-yl)amino)-3-Oxoprop-1-en-1-yl)-N-Hydroxybenzamide]
- Reduction in plaque load (Congo red-positive amyloid) (5xFAD transgenic mice [1]): No changes in β-amyloid plaque level

Structure (SMILES): O=C(CCCCCCC(=O)NC1C2CC3CC(C2)CC1C3)NO (stereo not drawn) [compound 15, N^1-(Adamant-2-yl)-N^8-Hydroxyoctanediamide]
- Oxygen consumption rate (OCR) after injection of succinate (5xFAD transgenic mice [2]; complex II): 251.00 ± 10.45 pmol/min
- Oxygen consumption rate (OCR) after injection of ascorbate (5xFAD transgenic mice [2]; complex IV): 422.67 ± 14.61 pmol/min
- melting point: 133.6 °C
- Reduction in plaque load (Congo red-positive amyloid) (5xFAD transgenic mice [1]): 45%
- Total glutathione content in brain (5xFAD transgenic mice [3]): tended to recover this parameter
